This is an account of results in ChEMBL document CHEMBL1629579, “Correlating echinocandin MIC and kinetic inhibition of fks1 mutant glucan synthases for Candida albicans: implications for interpretive breakpoints” (Antimicrob Agents Chemother, 2009).

Numbered stars: 1 amine (or outer) side, 2 acyl side, 3 side chain; on linkers, the order of the positions; unused ones are H or OH. Bridge positions count the residues as written; N and C are the ends. Square brackets hold non-standard residues; d marks the D form. Peptide text beside a SMILES is read from it. * marks the point of attachment. pTerphenylCO(4''-OnC5H11) = CCCCCOc1ccc(-c2ccc(-c3ccc(C(=O)*)cc3)cc2)cc1; Orn(4R-OH,5R-OH) = O=C([C@H](C[C@@H](O)[C@@H](O)N[*:3])N[*:1])[*:2]; hTyr(3S-OH,4S-OH) = N[C@H](C(=O)O)[C@H](O)[C@@H](O)c1ccc(O)cc1; Pro(3S-OH,4S-Me) = C[C@H]1CN[C@H](C(=O)O)[C@H]1O; Hyp = O=C(O)[C@@H]1C[C@@H](O)CN1 Bounds are passed on as bounds.

Experiment [1] concerns Candida albicans. Description: Selectivity ratio of Ki for Candida albicans 122 1,3-beta-D-glucan synthase subunit FKS1p C1946A mutant to Ki for Candida albicans SC5314 wild type 1,3-beta-D-glucan synthase subunit FKS1p.
The subject of experiment [2] is Candida albicans. Description: Selectivity ratio of Ki for Candida albicans 149 1,3-beta-D-glucan synthase subunit FKS1p G1942T mutant to Ki for Candida albicans SC5314 wild type 1,3-beta-D-glucan synthase subunit FKS1p.

For the compound `CCCCCOc1ccc(-c2ccc(-c3ccc(C(=O)N[C@H]4C[C@@H](O)[C@@H](O)NC(=O)[C@@H]5[C@@H](O)[C@@H](C)CN5C(=O)[C@H]([C@@H](C)O)NC(=O)[C@H]([C@H](O)[C@@H](O)c5ccc(O)cc5)NC(=O)[C@@H]5C[C@@H](O)CN5C(=O)[C@H]([C@@H](C)O)NC4=O)cc3)cc2)cc1` [ANIDULAFUNGIN] ({pTerphenylCO(4''-OnC5H11)}-[Orn(4R-OH,5R-OH)]T[Hyp][hTyr(3S-OH,4S-OH)]T[Pro(3S-OH,4S-Me)]; lactam 1-C), the Ratio Ki with Candida albicans [1] and in the experiment on Candida albicans [2] was > 100 each time.
